Source: US10538099B2, “Inkjet recording apparatus, printer, and method for manufacturing cured product” (Ricoh Company, Ltd., priority 2016, dated 2020)
Like-named read-outs stand apart in the source and are kept apart here.

Experiments:
[1] = evaluated by Maximization test method according to the document; cited from earlier work
[2] = evaluated by a test method based on OECD Test Guideline 406 in MSDS; cited from earlier work
[3] = risk phrase code R43 or H317; cited from earlier work
female mice = experiment: Skin sensitization test according to the LLNA (Local Lymph Node Assay), BrdU intake; format: in vivo; conditions: test substance 50.0 w/v % in acetone/olive oil 4/1, 25 μL/auricle once a day for three days; SI less than 3 = negative in skin sensitizing property
Experimental: Stimulus index (SI) was measured by a skin sensitization test according to the LLNA (Local Lymph Node Assay) as follows.
As a positive control, α-hexyl cinnamaldehyde (HCA, product of Wako Pure Chemical Industries, Ltd.) was used.
As a medium, a mixture liquid of acetone (product of Wako Pure Chemical Industries, Ltd.) and olive oil (product of Fudimi Pharmaceutical Co., Ltd.) in a volume ratio of 4/1 was used.
Before treated with the test materials, the positive control, or the medium control, female mice were acclimated for 8 days including 6-day quarantine. No abnormalities were found in all the mice (used animals) during the quarantine/acclimation period.
Based on the body weights measured 2 days before the initiation of sensitization, they were categorized into 2 groups (4 mice/group) by the body weight stratified random sampling method so that the body weight of each individual was within ±20% of the average body weight of all the individuals. Each of the used animals was 8 weeks old to 9 weeks old at the time of the initiation of sensitization. […]
About 24 hours after the administration of BrdU, the used animals were allowed to undergo euthanasia, and their auricular lymph nodes were sampled. […] Also, the average of the weights of the auricular lymph nodes and the standard error thereof were calculated for each group. […]

Molecule	skin sensitizing property [1]	skin sensitizing property [2]	other results
C=C(C)C(=O)OCCCCCC [n-Hexyl methacrylate]	Negative	–	–
CCC(Cc1ccc(C)cc1)(C(=O)c1ccc(N2CCOCC2)cc1)N(C)C (stereo not drawn) [2-Dimethylamino-2-(4-methylbenzyl)-1-(4-morpholine-4-yl-phenyl)butane-1-one]	–	None	–
Caprolactone-modified dipentaerythritol hexaacrylate	–	Negative	–
C=CC(=O)OC(C)(C)C [t-Butyl acrylate]	–	–	skin sensitizing property [3]: Positive
C=C(C)C(=O)OC(C)(C)C [t-Butyl methacrylate]	Negative	–	–
Tricyclodecane dimethanol dimethacrylate	–	–	SI measured by the LLNA test (stimulus index) (female mice): 1.3
O=C(c1ccccc1)C1(O)CCCCC1 [1-Hydroxy-cyclohexyl phenyl ketone]	–	None	–
C=C(C)C(=O)OCCCCC [n-Pentyl methacrylate]	Negative	–	–
C=C(C)C(=O)OCC(CO)OC(=O)C(=C)C (stereo not drawn) [Glycerol dimethacrylate]	–	–	SI measured by the LLNA test (stimulus index) (female mice): 1.2
